From publication PMC8100298, “Histone deacetylase inhibitor resminostat in combination with sorafenib counteracts platelet-mediated pro-tumoral effects in hepatocellular carcinoma” (Scientific Reports, 2021)
Read-outs that look alike come from different tables or passages of the source.

What was measured:
Assay in all cases: Efficacy screening assay
Format in all cases: cell-based
RDES = details: 72 h, bone
Experimental: (§1) The experiment was performed by Oncolead GmbH & Co. KG (Karlsfeld , Germany), based on a standardized screening procedure . Cell lines were purchased directly from the ATCC, NCI and DSMZ cell line c ollections. Cells used for the study had undergone less than 20 passages. To ensure the absence of potential contamination and wrong assignment, all cell lines were tested using a whole genome assay (Agilent, USA). All cell lines were grown as recommended by the suppliers and with addition of 100 U/mL penicillin G and 100 µg/mL; streptomycin. Cell growth and treatments were performed in Nunclon D 96 -well plates (NUNC, Germany). The optimal seeding density for each cell line was determined to ensure exponential growth for the duration of the experiment. All cells growing without anti-cancer agents were sub-conﬂuent by the end of the treatment, as determined by visual inspection.
(§2) After an initial 24 h pre-growth period, the compounds were added. The vehicle concentration […]
(§3) was 0.1% DMSO. After incubation at 37°C for 72 h, the culture medium was aspirated, and the cells were precipitated by the addition of 10% trichloroacetic acid (Sigma-Aldrich, Missouri, US). After overnight incubation at 4°C, the plates were washed three times with deionized water. The precipitates were then stained with SRB (0.4% wt/v sulforhodamine B solution in 1% acetic acid, Sigma-Aldrich, Missouri, US). Afterwards, the plates were washed six times with 1% acetic acid to remove unbound stain. After drying the plates at room temperature, the bound SRB was solubilized with 10 mM Tris base and the optical density was measured at 520 nm using a Victor2 plate reader (Perkin Elmer, Germany). Blank OD values were subtracted from mean OD values for each concentration. The nonlinear curve ﬁtting and EC50 calculations were per formed using XLﬁt and algorithm “205” (ID Business […]
(§4) For comparison of EC50 values in Figure 1F, one-way ANOVA with multiple comparison testing (Tukey) was performed. Multiplicity adjusted p -values for the EC50 with sorafenib versus resminostat for each cell line and comparison between cell lines for sorafenib are presented (95% confidence interval for significance testing). For comparison of EC50 data in Figure 2B, one-way ANOVA with multiple comparison testing (Tukey) was performed. Multiplicity adjusted p-values with 95% confidence interval was applied. For the invasion assays in Figure 4, one-way ANOVA with multiple comparison testing (Tukey) was performed. Multiplicity adjusted p-values with 95% confidence interval was applied. The adjusted p-values comparing vehicle control without vs. with platelets and compound

RD = details: 72 h, muscle
Experimental: as §1, §2, §3, §4

PLCPRF5 = details: Homo sapiens, PLC-PRF-5, PLCPRF5, liver, 72 h
Experimental: as §1, §2, §3, §4

UO31 = details: UO31, kidney
Experimental: as §1, §2, §3, §4

HCT15 = details: HCT15, colon
Experimental: as §1, §2, §3, §4

NCIH292 = details: NCIH292, lung
Experimental: as §1, §2, §3, §4

UMUC3 = details: UMUC3, bladder
Experimental: as §1, §2, §3, §4

PANC1005 = details: PANC1005, pancreas
Experimental: as §1, §2, §3, §4

NCIH358M = details: 72 h, lung
Experimental: as §1, §2, §3, §4

CLS439 = system: CLS439
Experimental: as §1, §2, §3, §4

MIAPACA2 = details: Homo sapiens, MIA PaCa-2, MIAPACA2, pancreas, 72 h
Experimental: as §1, §2, §3, §4

HS578T = details: 72 h, breast
Experimental: as §1, §2, §3, §4

CALU6 = details: CALU6, lung
Experimental: as §1, §2, §3, §4

OVCAR4 = details: OVCAR4, ovary
Experimental: as §1, §2, §3, §4

COLO678 = details: Homo sapiens, COLO-678, COLO678, colon, 72 h
Experimental: as §1, §2, §3, §4

[1] = log of EC50, negative, read-out: log(EC50) (converted)

**Q.** Which results are given for CN(C)Cc1ccc(S(=O)(=O)n2ccc(/C=C/C(=O)NO)c2)cc1 [resminostat, Resminostat]?
**A.** EC50 (RDES; RD-ES, log of EC50, negative, read-out: log(EC50) (converted)): 3.55 µM; EC50 (RDES; RD-ES, read-out: EC50): 3.57 µM; EC50 (RDES; read-out: EC50): 3.57 µM; EC50 (RD; Homo sapiens, log of EC50, negative, read-out: log(EC50) (converted)): 1.55 µM; EC50 (RD; Homo sapiens, read-out: EC50): 1.53 µM; EC50 (RD; read-out: EC50): 1.53 µM; EC50 (PLCPRF5; [1]): 3.39 µM; EC50 (PLCPRF5; read-out: EC50): 3.42 µM; EC50 (UO31; Homo sapiens, UO-31, 72 h, log of EC50, negative, read-out: log(EC50) (converted)): 0.0724 µM; EC50 (UO31; Homo sapiens, UO-31, 72 h, read-out: EC50): 0.0722 µM; EC50 (UO31; 72 h, read-out: EC50): 0.07 µM; EC50 (HCT15; 72 h, read-out: EC50): 2.07 µM; EC50 (HCT15; Homo sapiens, HCT-15, 72 h, log of EC50, negative, read-out: log(EC50) (converted)): 2.09 µM; EC50 (HCT15; Homo sapiens, HCT-15, 72 h, read-out: EC50): 2.07 µM; EC50 (NCIH292; Homo sapiens, NCI-H292, 72 h, log of EC50, negative, read-out: log(EC50) (converted)): 6.31 µM; EC50 (NCIH292; Homo sapiens, NCI-H292, 72 h, read-out: EC50): 6.27 µM; EC50 (NCIH292; 72 h, read-out: EC50): 6.27 µM; EC50 (UMUC3; Homo sapiens, UMUC3, 72 h, log of EC50, negative, read-out: log(EC50) (converted)): 3.24 µM; EC50 (UMUC3; Homo sapiens, UMUC3, 72 h, read-out: EC50): 3.24 µM; EC50 (UMUC3; 72 h, read-out: EC50): 3.24 µM; EC50 (PANC1005; Homo sapiens, Panc1005, 72 h, log of EC50, negative, read-out: log(EC50) (converted)): 5.75 µM; EC50 (PANC1005; Homo sapiens, Panc1005, 72 h, read-out: EC50): 5.74 µM; EC50 (PANC1005; 72 h, read-out: EC50): 5.74 µM; EC50 (NCIH358M; NCI-H358M, log of EC50, negative, read-out: log(EC50) (converted)): 4.37 µM; EC50 (NCIH358M; NCI-H358M, read-out: EC50): 4.33 µM; EC50 (NCIH358M; read-out: EC50): 4.33 µM; EC50 (CLS439; 72 h, CLS439, bladder, log of EC50, negative, read-out: log(EC50) (converted)): 0.776 µM; EC50 (CLS439; 72 h, CLS439, bladder, read-out: EC50): 0.781 µM; EC50 (CLS439; CLS439, bladder; 72 h; read-out: EC50): 0.78 µM; EC50 (MIAPACA2; [1]): 2.69 µM; EC50 (MIAPACA2; read-out: EC50): 2.71 µM; EC50 (HS578T; Homo sapiens, Hs-578T, log of EC50, negative, read-out: log(EC50) (converted)): 3.98 µM; EC50 (HS578T; Homo sapiens, Hs-578T, read-out: EC50): 4.03 µM; EC50 (HS578T; read-out: EC50): 4.03 µM; EC50 (CALU6; 72 h, read-out: EC50): 2.93 µM; EC50 (CALU6; Homo sapiens, Calu-6, 72 h, log of EC50, negative, read-out: log(EC50) (converted)): 2.95 µM; EC50 (CALU6; Homo sapiens, Calu-6, 72 h, read-out: EC50): 2.93 µM; EC50 (OVCAR4; Homo sapiens, OVCAR-4, 72 h, log of EC50, negative, read-out: log(EC50) (converted)): 4.07 µM; EC50 (OVCAR4; Homo sapiens, OVCAR-4, 72 h, read-out: EC50): 4.04 µM; EC50 (OVCAR4; 72 h, read-out: EC50): 4.04 µM; EC50 (COLO678; [1]): 7.59 µM; EC50 (COLO678; read-out: EC50): 7.62 µM
